Measured values published in ChEMBL document CHEMBL3885881, “DrugMatrix”.

Species on record: Rattus norvegicus
Assay: DrugMatrix - Regimen: Daily Repeat
Format: toxicity, organism-based, Sprague-Dawley
Set-up: regimen Daily Repeat, gender Male, age 6-8 weeks
Settings: in vivo, po, route oral GAVAGE, […]; for ABSOLUTE BASOPHIL / ABSOLUTE EOSINOPHIL / ABSOLUTE LYMPHOCYTE / ABSOLUTE MONOCYTE / ABSOLUTE SEGMENTED NEUTROPHIL / BASOPHIL / EOSINOPHIL / ERYTHROCYTE COUNT / HEMATOCRIT / HEMOGLOBIN / LEUKOCYTE COUNT / LYMPHOCYTE / MEAN CORPUSCULAR HEMOGLOBIN / MEAN CORPUSCULAR HEMOGLOBIN CONCENTRATION / MEAN CORPUSCULAR VOLUME / MONOCYTE / NEUTROPHIL / NUCLEATED RED BLOOD CELLS / PLATELET COUNT: tissue Blood; for ALANINE AMINOTRANSFERASE / ALBUMIN / ALKALINE PHOSPHATASE / ASPARTATE AMINOTRANSFERASE / BLOOD UREA NITROGEN / CARBON DIOXIDE / CHLORIDE / CHOLESTEROL / CREATINE PHOSPHOKINASE / CREATININE / GLUCOSE / LACTATE DEHYDROGENASE / LIPASE / PHOSPHORUS / POTASSIUM / SODIUM / TOTAL BILIRUBIN / TOTAL PROTEIN / URIC ACID: tissue Plasma
[1] = 0 mg/kg, 72 h, dose level Control, time 3 day
[2] = 0 mg/kg, 120 h, dose level Control, time 5 day
[3] = 30 mg/kg, 72 h, dose level Low, time 3 day
[4] = 30 mg/kg, 120 h, dose level Low, time 5 day

CS(=O)(=O)Nc1ccc([N+](=O)[O-])cc1Oc1ccccc1 [NIMESULIDE]
ABSOLUTE BASOPHIL [1]: 0 CELLS/uL | ABSOLUTE EOSINOPHIL [1]: 0 CELLS/uL | ABSOLUTE LYMPHOCYTE [1]: 7601 CELLS/uL | ABSOLUTE MONOCYTE [1]: 354.33 CELLS/uL | ABSOLUTE SEGMENTED NEUTROPHIL [1]: 744.67 CELLS/uL | BASOPHIL [1]: 0% | EOSINOPHIL [1]: 0% | ERYTHROCYTE COUNT [1]: 5.03 x10E6/uL | HEMATOCRIT [1]: 33.7% | HEMOGLOBIN [1]: 13.43 G/DL | LEUKOCYTE COUNT [1]: 8.7 x10E3/uL | LYMPHOCYTE [1]: 86.33% | MEAN CORPUSCULAR HEMOGLOBIN [1]: 26.7 pg | MEAN CORPUSCULAR HEMOGLOBIN CONCENTRATION [1]: 39.83 G/DL | MEAN CORPUSCULAR VOLUME [1]: 67 fL | MONOCYTE [1]: 4.67% | NEUTROPHIL [1]: 9% | NUCLEATED RED BLOOD CELLS [1]: 0 /100WBC | PLATELET COUNT [1]: 1151 x10E3/uL | ALANINE AMINOTRANSFERASE [1]: 97.67 u/L | ALBUMIN [1]: 4.07 G/DL | ALKALINE PHOSPHATASE [1]: 607.67 u/L | ASPARTATE AMINOTRANSFERASE [1]: 101 u/L | BLOOD UREA NITROGEN [1]: 13.33 mg/dL | CARBON DIOXIDE [1]: 36 mmol/L | CHLORIDE [1]: 99.67 MEQ/L | CHOLESTEROL [1]: 75.67 mg/dL | CREATINE PHOSPHOKINASE [1]: 279.67 u/L | CREATININE [1]: 0.16 mg/dL | GLUCOSE [1]: 164 mg/dL | LACTATE DEHYDROGENASE [1]: 115 u/L | LIPASE [1]: 12.67 u/L | PHOSPHORUS [1]: 8.77 mg/dL | POTASSIUM [1]: 5.79 MEQ/L | SODIUM [1]: 142.83 MEQ/L | TOTAL BILIRUBIN [1]: 0.27 mg/dL | TOTAL PROTEIN [1]: 5.8 G/DL | URIC ACID [1]: 0.67 mg/dL | ABSOLUTE BASOPHIL [2]: 0 CELLS/uL | ABSOLUTE EOSINOPHIL [2]: 0 CELLS/uL | ABSOLUTE LYMPHOCYTE [2]: 4426.33 CELLS/uL | ABSOLUTE MONOCYTE [2]: 102.67 CELLS/uL | ABSOLUTE SEGMENTED NEUTROPHIL [2]: 337.67 CELLS/uL | BASOPHIL [2]: 0% | EOSINOPHIL [2]: 0% | ERYTHROCYTE COUNT [2]: 5.31 x10E6/uL | HEMATOCRIT [2]: 32.5% | HEMOGLOBIN [2]: 13.17 G/DL | LEUKOCYTE COUNT [2]: 4.87 x10E3/uL | LYMPHOCYTE [2]: 90.33% | MEAN CORPUSCULAR HEMOGLOBIN [2]: 24.93 pg | MEAN CORPUSCULAR HEMOGLOBIN CONCENTRATION [2]: 40.67 G/DL | MEAN CORPUSCULAR VOLUME [2]: 61.33 fL | MONOCYTE [2]: 2.33% | NEUTROPHIL [2]: 7.33% | NUCLEATED RED BLOOD CELLS [2]: 0.33 /100WBC | PLATELET COUNT [2]: 848.33 x10E3/uL | ALANINE AMINOTRANSFERASE [2]: 59.67 u/L | ALBUMIN [2]: 3.87 G/DL | ALKALINE PHOSPHATASE [2]: 452 u/L | ASPARTATE AMINOTRANSFERASE [2]: 81.33 u/L | BLOOD UREA NITROGEN [2]: 13.67 mg/dL | CARBON DIOXIDE [2]: 26.33 mmol/L | CHLORIDE [2]: 103.67 MEQ/L | CHOLESTEROL [2]: 65.67 mg/dL | CREATINE PHOSPHOKINASE [2]: 355.33 u/L | CREATININE [2]: 0.14 mg/dL | GLUCOSE [2]: 171.33 mg/dL | LACTATE DEHYDROGENASE [2]: 118 u/L | LIPASE [2]: 11.33 u/L | PHOSPHORUS [2]: 11.13 mg/dL | POTASSIUM [2]: 5.18 MEQ/L | SODIUM [2]: 143.17 MEQ/L | TOTAL BILIRUBIN [2]: 0.2 mg/dL | TOTAL PROTEIN [2]: 5.87 G/DL | URIC ACID [2]: 0.63 mg/dL | ABSOLUTE BASOPHIL [3]: 0 CELLS/uL | ABSOLUTE EOSINOPHIL [3]: 25.33 CELLS/uL | ABSOLUTE LYMPHOCYTE [3]: 7491.33 CELLS/uL | ABSOLUTE MONOCYTE [3]: 125 CELLS/uL | ABSOLUTE SEGMENTED NEUTROPHIL [3]: 858.33 CELLS/uL | BASOPHIL [3]: 0% | EOSINOPHIL [3]: 0.33% | ERYTHROCYTE COUNT [3]: 5.1 x10E6/uL | HEMATOCRIT [3]: 33.1% | HEMOGLOBIN [3]: 12.87 G/DL | LEUKOCYTE COUNT [3]: 8.5 x10E3/uL | LYMPHOCYTE [3]: 88% | MEAN CORPUSCULAR HEMOGLOBIN [3]: 25.23 pg | MEAN CORPUSCULAR HEMOGLOBIN CONCENTRATION [3]: 38.87 G/DL | MEAN CORPUSCULAR VOLUME [3]: 64.93 fL | MONOCYTE [3]: 1.33% | NEUTROPHIL [3]: 10.33% | NUCLEATED RED BLOOD CELLS [3]: 0 /100WBC | PLATELET COUNT [3]: 1037.67 x10E3/uL | ALANINE AMINOTRANSFERASE [3]: 125.67 u/L | ALBUMIN [3]: 4.17 G/DL | ALKALINE PHOSPHATASE [3]: 434 u/L | ASPARTATE AMINOTRANSFERASE [3]: 117 u/L | BLOOD UREA NITROGEN [3]: 11 mg/dL | CARBON DIOXIDE [3]: 35 mmol/L | CHLORIDE [3]: 106.33 MEQ/L | CHOLESTEROL [3]: 78 mg/dL | CREATINE PHOSPHOKINASE [3]: 456.33 u/L | CREATININE [3]: 0.28 mg/dL | GLUCOSE [3]: 158.67 mg/dL | LACTATE DEHYDROGENASE [3]: 119.33 u/L | LIPASE [3]: 11 u/L | PHOSPHORUS [3]: 8.8 mg/dL | POTASSIUM [3]: 5.65 MEQ/L | SODIUM [3]: 146.27 MEQ/L | TOTAL BILIRUBIN [3]: 0.13 mg/dL | TOTAL PROTEIN [3]: 5.7 G/DL | URIC ACID [3]: 0.63 mg/dL | ABSOLUTE BASOPHIL [4]: 0 CELLS/uL | ABSOLUTE EOSINOPHIL [4]: 83.33 CELLS/uL | ABSOLUTE LYMPHOCYTE [4]: 10811.33 CELLS/uL | ABSOLUTE MONOCYTE [4]: 335.67 CELLS/uL | ABSOLUTE SEGMENTED NEUTROPHIL [4]: 1536.33 CELLS/uL | BASOPHIL [4]: 0% | EOSINOPHIL [4]: 0.33% | ERYTHROCYTE COUNT [4]: 5.57 x10E6/uL | HEMATOCRIT [4]: 36.37% | HEMOGLOBIN [4]: 13.93 G/DL | LEUKOCYTE COUNT [4]: 12.77 x10E3/uL | LYMPHOCYTE [4]: 87.33% | MEAN CORPUSCULAR HEMOGLOBIN [4]: 25 pg | MEAN CORPUSCULAR HEMOGLOBIN CONCENTRATION [4]: 38.33 G/DL | MEAN CORPUSCULAR VOLUME [4]: 65.23 fL | MONOCYTE [4]: 2.33% | NEUTROPHIL [4]: 10% | NUCLEATED RED BLOOD CELLS [4]: 0 /100WBC | PLATELET COUNT [4]: 1176 x10E3/uL | ALANINE AMINOTRANSFERASE [4]: 52 u/L | ALBUMIN [4]: 4.27 G/DL | ALKALINE PHOSPHATASE [4]: 326 u/L | ASPARTATE AMINOTRANSFERASE [4]: 65.67 u/L | BLOOD UREA NITROGEN [4]: 16 mg/dL | CARBON DIOXIDE [4]: 24.67 mmol/L | CHLORIDE [4]: 108.33 MEQ/L | CHOLESTEROL [4]: 74.67 mg/dL | CREATINE PHOSPHOKINASE [4]: 187 u/L | CREATININE [4]: 0.16 mg/dL | GLUCOSE [4]: 176.33 mg/dL | LACTATE DEHYDROGENASE [4]: 75.67 u/L | LIPASE [4]: 10.33 u/L | PHOSPHORUS [4]: 10.53 mg/dL | POTASSIUM [4]: 4.45 MEQ/L | SODIUM [4]: 149.7 MEQ/L | TOTAL BILIRUBIN [4]: 0.1 mg/dL | TOTAL PROTEIN [4]: 6.33 G/DL | URIC ACID [4]: 0.6 mg/dL
